Test results as given in patent US11299485B2, “Thiophene derivative and use thereof” (FUJIMOTO CO., LTD., priority 2018, dated 2022).

How the values were obtained:
Format in all cases: cell-based
TNF-α production = assay: Human TNF-α production suppression test (LPS-stimulated peripheral blood mononuclear cells, ELISA); conditions: PBMC, compound 10 μg/mL, 24 hr, control well = 100, read-out: TNF-α production suppressive rate (%)
In short: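 PBMCs from healthy adult blood (Lymphoprep) were seeded at 5×10^5 cells/mL in RPMI1640 with 10% FCS, with test compound and LPS, for 24 hr at 37° C, 5% CO2. Supernatant TNF-α was measured by ELISA; suppression rate calculated against DMSO control wells set as 100.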

REC-1 cells = assay: Human mantle cell lymphoma cell line REC-1 proliferation suppression test; conditions: Rec1, 72 h, compound 10 μM, 3 days, WST-8, read-out: cell survival rate (% of control) REC-1
In short: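 Cells were plated at 1.3×10^5 cells/mL, and the next day test compound was added at a final 10 μM, with DMSO-only medium as control. After 3 days at 37° C under 5% CO2, proliferation was measured with WST-8.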

Kasumi-7 cells = assay: Human acute lymphoblastic leukemia cell line Kasumi-7 proliferation suppression test; conditions: 72 h, compound 10 μM, 3 days, WST-8, read-out: cell survival rate (% of control) Kasumi-7
In short: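 Cells seeded at 1.3×10^5 cells/mL in RPMI1640 with 20% FCS, cultured overnight at 37°C, 5% CO2, then treated with compound at 10 μM final; DMSO vehicle control. Proliferation read by WST-8 after 3 days' culture.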

[1] = test system: human peripheral blood mononuclear cells (PBMC); assay: Cytotoxicity test using human peripheral blood mononuclear cells (PBMC); conditions: compound 10 μg/mL, LPS, 24 hr, WST-1 or WST-8
In short: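 Healthy-donor PBMC isolated by Lymphoprep density centrifugation were seeded at 5×10^5 cells/mL (stock density) with 10 μg/mL LPS stock and test compound at 10 μg/mL final. Cultured 24 hr at 37° C, 5% CO2; survival measured by WST-1 or WST-8 versus DMSO control.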

| Structure (SMILES) | inhibition at 10 µg/mL (TNF-α production) [%] | viability at 10 µM (REC-1 cells) [%] | viability at 10 µM (Kasumi-7 cells) [%] | cell survival rate (% of control) PBMC [1] |
| --- | --- | --- | --- | --- |
| COc1c(-c2cn(C3CCC(=O)NC3=O)nn2)csc1Cl (stereo not shown) [compound 22, 3-[4-(5-chloro-4-methoxythiophen-3-yl)-1H-1,2,3-triazol-1-yl]piperidine-2,6-dione] | 48 | 65 | 82 | 132 % of control |
| O=C1CCC(n2cc(-c3ccc(Br)s3)nn2)C(=O)N1 (stereo not shown) [compound 12, 3-[4-(5-bromothiophen-2-yl)-1H-1,2,3-triazol-1-yl]piperidine-2,6-dione] | 84 | 77 | 89 | 101 % of control |
| O=C1CCC(n2cc(-c3cscc3OCC3CCCC3)nn2)C(=O)N1 (stereo not shown) [compound 29, 3-{4-[4-(cyclopentylmethoxy)thiophen-3-yl]-1H-1,2,3-triazol-1-yl}piperidine-2,6-dione] | 57 | 86 | 84 | 104 % of control |
| CC(C)Oc1cscc1-c1cn(C2CCC(=O)NC2=O)nn1 (stereo not shown) [compound 26, 3-[4-(4-isopropoxythiophen-3-yl)-1H-1,2,3-triazol-1-yl]piperidine-2,6-dione] | 83 | 23 | 50 | 42 % of control |
| O=C1CCC(n2cc(-c3cscc3OCc3cccnc3)nn2)C(=O)N1 (stereo not shown) [compound 35, 3-{4-[4-(pyridin-3-ylmethoxy)thiophen-3-yl]-1H-1,2,3-triazol-1-yl}piperidine-2,6-dione] | 70 | 39 | 53 | 100 % of control |
| O=C1CCC(n2nnc(-c3ccsc3)c2Br)C(=O)N1 (stereo not shown) [compound 48, 3-[5-bromo-4-(thiophen-3-yl)-1H-1,2,3-triazol-1-yl]piperidine-2,6-dione] | 51 | 98 | 95 | 138 % of control |
| O=C1CCC(n2cc(-c3cscc3OC3CCCC3)nn2)C(=O)N1 (stereo not shown) [compound 27, 3-{4-[4-(cyclopentyloxy)thiophen-3-yl]-1H-1,2,3-triazol-1-yl}piperidine-2,6-dione] | 39 | 80 | 83 | 107 % of control |
